Among the data in PubChem BioAssay AID256 (DTP/NCI, 2004) are T/C values, retold here.

Values joined by “and” are separate entries in the source; they are usually repeats but may differ in a detail not shown here. Identical values can stand only once. Toxic doses and inconclusive results are not listed.

For this assay, the system named is CD2F1 mice, L1210 leukemia ip, survival T/C. Kind of assay: NCI In Vivo Anticancer Drug Screen. Data for tumor model L1210 Leukemia (intraperitoneal) in CD2F1 (CDF1) mice. Particulars: higher = longer survival. An outline of the steps:
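Compound-dosed mice with transplantable tumor versus matched vehicle controls; endpoint ratio T/C reported.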

Where [1] appears, read: endpoint: mean survival time, dose: 5.0 mg/kg/injection, schedule: Q01DX009 (ip), vehicle: saline with Tween-80.
The mark [2] stands for this setting: endpoint: mean survival time, dose: 10.0 mg/kg/injection, schedule: Q01DX009 (ip), vehicle: saline with Tween-80.
Setting [3] is: endpoint: mean survival time, dose: 50.0 mg/kg/injection, schedule: Q01DX009 (ip), vehicle: saline with Tween-80.
The mark [4] stands for this setting: endpoint: mean survival time, dose: 100.0 mg/kg/injection, schedule: Q04DX003 (ip), vehicle: saline with Tween-80.
Setting [5] is: endpoint: mean survival time, dose: 100.0 mg/kg/injection, schedule: Q01DX001 (ip), vehicle: saline with Tween-80.
[6] abbreviates: endpoint: mean survival time, dose: 100.0 mg/kg/injection, schedule: Q01DX009 (ip), vehicle: saline with Tween-80.
Where [7] appears, read: endpoint: mean survival time, dose: 200.0 mg/kg/injection, schedule: Q01DX001 (ip), vehicle: saline with Tween-80.
Setting [8] is: endpoint: mean survival time, dose: 200.0 mg/kg/injection, schedule: Q01DX009 (ip), vehicle: saline with Tween-80.
Setting [9] is: endpoint: mean survival time, dose: 400.0 mg/kg/injection, schedule: Q01DX001 (ip), vehicle: saline with Tween-80.
Where [10] appears, read: endpoint: mean survival time, dose: 400.0 mg/kg/injection, schedule: Q01DX009 (ip), vehicle: saline with Tween-80.
[11] abbreviates: endpoint: mean survival time, dose: 200.0 mg/kg/injection, schedule: Q04DX003 (ip), vehicle: saline with Tween-80.
The mark [12] stands for this setting: endpoint: mean survival time, dose: 50.0 mg/kg/injection, schedule: Q04DX002 (ip), vehicle: saline with Tween-80.
[13] abbreviates: endpoint: mean survival time, dose: 25.0 mg/kg/injection, schedule: Q04DX002 (ip), vehicle: saline with Tween-80.

For the molecule `O=C(CBr)c1ccccc1`, the T/C under setting [1] is 97 % of control and the T/C under setting [2] is 93 % of control.

In the case of `Cc1ccccc1NCC#N`, the T/C runs as follows: (endpoint: mean survival time, dose: 25.0 mg/kg/injection, schedule: Q01DX009 (ip), vehicle: saline with Tween-80) 101 % of control; under setting [3], 97 % of control; under setting [4], 93 % of control.

With `O=C1NC(=O)C2CC(Br)C(Br)CC12` (stereo not drawn), the T/C reads like this: (endpoint: mean survival time, dose: 5.0 mg/kg/injection, schedule: Q01DX001 (ip), vehicle: saline) 103 % of control; (endpoint: mean survival time, dose: 10.0 mg/kg/injection, schedule: Q01DX001 (ip), vehicle: saline) 101 % of control; (endpoint: mean survival time, dose: 20.0 mg/kg/injection, schedule: Q01DX001 (ip), vehicle: saline) 100 % of control.

On to `CCN(CCNc1ccc(C)c2sc3ccccc3c(=O)c12)CC(C)(C)O`, for which the T/C was 112 % of control (endpoint: mean survival time, dose: 200.0 mg/kg/injection, schedule: Q01DX001 (ip), vehicle: saline) and 174 % of control (endpoint: mean survival time, dose: 400.0 mg/kg/injection, schedule: Q04DX003 (ip), vehicle: saline).

As to `C1CC2CCCN2C1`, the T/C (endpoint: mean survival time, dose: 12.5 mg/kg/injection, schedule: Q04DX003 (ip), vehicle: acetone) was 96 % of control; the T/C (endpoint: mean survival time, dose: 25.0 mg/kg/injection, schedule: Q04DX003 (ip), vehicle: acetone) is 102 % of control; the T/C (endpoint: mean survival time, dose: 50.0 mg/kg/injection, schedule: Q04DX003 (ip), vehicle: acetone) is 97 % of control.

With `COc1ccc(CNc2ccc([N+](=O)[O-])c3nonc23)cc1`, the T/C is 94 % of control (endpoint: mean survival time, dose: 50.0 mg/kg/injection, schedule: Q01DX009 (ip), vehicle: Klucel (hydroxypropylcellulose) (HPC)); 86 % of control (endpoint: mean survival time, dose: 100.0 mg/kg/injection, schedule: Q01DX009 (ip), vehicle: Klucel (hydroxypropylcellulose) (HPC)); 94 % of control (endpoint: mean survival time, dose: 200.0 mg/kg/injection, schedule: Q01DX009 (ip), vehicle: Klucel (hydroxypropylcellulose) (HPC)).

Turning to `Cl`, the T/C was 103 % of control (endpoint: mean survival time, dose: 6.25 mg/kg/injection, schedule: Q01DX009 (ip), vehicle: saline sonified); 100 % of control (endpoint: mean survival time, dose: 6.25 mg/kg/injection, schedule: Q04DX003 (ip), vehicle: saline with Tween-80); 101 % of control (endpoint: mean survival time, dose: 12.5 mg/kg/injection, schedule: Q01DX009 (ip), vehicle: saline sonified); 98 % of control (endpoint: mean survival time, dose: 12.5 mg/kg/injection, schedule: Q04DX003 (ip), vehicle: saline with Tween-80); 106 % of control (endpoint: mean survival time, dose: 25.0 mg/kg/injection, schedule: Q01DX009 (ip), vehicle: saline sonified); 98 % of control (endpoint: mean survival time, dose: 25.0 mg/kg/injection, schedule: Q04DX003 (ip), vehicle: saline with Tween-80).

For the molecule `CC(=O)OCC1OC(n2cnc3c(=S)nc(N)[nH]c32)C(OC(C)=O)C1OC(C)=O` (stereo not drawn), the T/C (endpoint: mean survival time, dose: 100.0 mg/kg/injection, schedule: Q01DX005 (ip), vehicle: saline) was 112 % of control and the T/C (endpoint: mean survival time, dose: 200.0 mg/kg/injection, schedule: Q01DX005 (ip), vehicle: saline) was 123 % of control.

Regarding `COC1OCC(OS(C)(=O)=O)C(OS(C)(=O)=O)C1OS(C)(=O)=O` (stereo not drawn), the T/C under setting [5] was 96 % of control; the T/C under setting [6] was 95 % of control and 100 % of control; the T/C under setting [7] was 97 % of control; the T/C under setting [8] is 96 % of control and 94 % of control; the T/C under setting [9] is 100 % of control; the T/C under setting [10] was 93 % of control and 96 % of control.

For the molecule `CCCCS(=O)CC(CO)NC(=O)/C=C/c1c(C)[nH]c(=O)[nH]c1=O` (stereo not drawn), the T/C (endpoint: mean survival time, dose: 0.63 mg/kg/injection, schedule: Q01DX009 (ip), vehicle: water) was 115 % of control and 105 % of control; the T/C (endpoint: mean survival time, dose: 1.25 mg/kg/injection, schedule: Q01DX009 (ip), vehicle: water) is 112 % of control; the T/C (endpoint: mean survival time, dose: 2.5 mg/kg/injection, schedule: Q01DX009 (ip), vehicle: water) is 118 % of control and 121 % of control; the T/C (endpoint: mean survival time, dose: 5.0 mg/kg/injection, schedule: Q01DX009 (ip), vehicle: water) was 116 % of control; the T/C (endpoint: mean survival time, dose: 10.0 mg/kg/injection, schedule: Q01DX009 (ip), vehicle: water) is 98 % of control.

With `CSc1ccc(C)cn1` (tested in a mixture with another compound), the T/C by setting is: under setting [6], 100 % of control; under setting [8], 97 % of control.

On to `CC(C)CCCC(C)C1CCC2C3C(O)C=C4CC(OC(=O)CCC(C)C)CCC4(C)C3CCC12C` (stereo not drawn), for which the T/C is, setting by setting: under setting [6], 94 % of control; under setting [8], 91 % of control; under setting [10], 100 % of control.

In the case of `O=C(CCl)Nc1ccc([N+](=O)[O-])cc1`, the T/C (endpoint: mean survival time, dose: 400.0 mg/kg/injection, schedule: Q04DX002 (ip), vehicle: saline with Tween-80) was 87 % of control.

`C=C(Br)CNC(=O)CCC`: the T/C was 107 % of control (endpoint: mean survival time, dose: 2.5 mg/kg/injection, schedule: Q01DX009 (ip), vehicle: saline with Tween-80); 106 % of control under setting [1]; 102 % of control under setting [2].

For `O=[N+]([O-])c1ccc(Sc2ccc([N+](=O)[O-])cc2)cc1`, the T/C under setting [4] was 88 % of control and the T/C under setting [11] is 92 % of control.

For the molecule `CCOC(=O)C(=O)C1CCc2c(ccc3ccccc23)C1=O` (stereo not drawn), the T/C reads like this: under setting [12], 93 % of control; (endpoint: mean survival time, dose: 100.0 mg/kg/injection, schedule: Q01DX001 (ip), vehicle: Klucel (hydroxypropylcellulose) (HPC)) 91 % of control; (endpoint: mean survival time, dose: 100.0 mg/kg/injection, schedule: Q04DX002 (ip), vehicle: saline with Tween-80) 96 % of control; (endpoint: mean survival time, dose: 200.0 mg/kg/injection, schedule: Q01DX001 (ip), vehicle: Klucel (hydroxypropylcellulose) (HPC)) 93 % of control; (endpoint: mean survival time, dose: 200.0 mg/kg/injection, schedule: Q04DX002 (ip), vehicle: saline with Tween-80) 96 % of control.

For the molecule `CC(C)N(C(=S)S)C(C)C`, the T/C is, setting by setting: under setting [4], 101 % of control; under setting [11], 100 % of control; (endpoint: mean survival time, dose: 400.0 mg/kg/injection, schedule: Q04DX003 (ip), vehicle: saline with Tween-80) 92 % of control.

Regarding `O=C(O)/C=C/C(=O)NNC(=O)/C=C/C(=O)O`, the T/C under setting [3] is 94 % of control, the T/C under setting [6] is 96 % of control and the T/C under setting [8] was 91 % of control.

`CN=C(NC)N/N=C(/c1ccc(Br)cc1)c1ccc(C(F)(F)F)cc1`: the T/C runs as follows: (endpoint: mean survival time, dose: 12.5 mg/kg/injection, schedule: Q04DX002 (ip), vehicle: saline with Tween-80) 90 % of control; under setting [13], 90 % of control; (endpoint: mean survival time, dose: 50.0 mg/kg/injection, schedule: Q04DX003 (ip), vehicle: saline with Tween-80) 98 % of control; (endpoint: mean survival time, dose: 100.0 mg/kg/injection, schedule: Q01DX001 (ip), vehicle: saline sonified) 97 % of control; (endpoint: mean survival time, dose: 200.0 mg/kg/injection, schedule: Q01DX001 (ip), vehicle: saline sonified) 93 % of control.

For `O=C(O)C(O)C(O)C(OC1OC(CO)C(O)C(O)C1O)C(O)CO.O=C(O)C(O)C(O)C(OC1OC(CO)C(O)C(O)C1O)C(O)CO.[NH-]C1CCCCC1[NH-].[Pt+2]` (stereo not drawn), the T/C is, setting by setting: (endpoint: median survival time, dose: 3.12 mg/kg/injection, schedule: Q04DX003 (ip), vehicle: saline) 113 % of control; (endpoint: median survival time, dose: 6.25 mg/kg/injection, schedule: Q04DX003 (ip), vehicle: saline) 121 % of control; (endpoint: median survival time, dose: 12.5 mg/kg/injection, schedule: Q04DX003 (ip), vehicle: saline) 162 % of control; (endpoint: median survival time, dose: 25.0 mg/kg/injection, schedule: Q04DX003 (ip), vehicle: saline) 195 % of control; (endpoint: median survival time, dose: 50.0 mg/kg/injection, schedule: Q04DX003 (ip), vehicle: saline) 158 % of control and 365 % of control; (endpoint: median survival time, dose: 200.0 mg/kg/injection, schedule: Q04DX003 (ip), vehicle: saline) 119 % of control.

On to `COC(=O)c1cn[nH]c1/N=N/N(C)C`, for which the T/C is 175 % of control (endpoint: mean survival time, dose: 88.0 mg/kg/injection, schedule: Q01DX009 (ip), vehicle: other); 164 % of control (endpoint: mean survival time, dose: 133.0 mg/kg/injection, schedule: Q01DX009 (ip), vehicle: other); 88 % of control (endpoint: mean survival time, dose: 300.0 mg/kg/injection, schedule: Q01DX009 (ip), vehicle: other).

On to `Cc1[nH]c2ccc(N=CN(C)C)cc2c1C`, for which the T/C under setting [13] was 111 % of control and the T/C under setting [12] is 111 % of control.

Take `O=c1ccn(Cc2ccc([N+](=O)[O-])cc2)c(=O)[nH]1`: the T/C by setting is: under setting [5], 94 % of control; under setting [7], 90 % of control; under setting [9], 98 % of control.

As to `CC1OC(=O)C2(C(C)C)CC12` (stereo not drawn), the T/C was 103 % of control (endpoint: mean survival time, dose: 9.5 mg/kg/injection, schedule: Q01DX001 (ip), vehicle: other) and 106 % of control (endpoint: mean survival time, dose: 19.0 mg/kg/injection, schedule: Q01DX001 (ip), vehicle: other).
